# In PMC5088049 (Pharmacogenetics and genomics, 2016):
# T1: aromatase (Homo sapiens, UniProt P11511)
# T1 sequence (P11511 1-503): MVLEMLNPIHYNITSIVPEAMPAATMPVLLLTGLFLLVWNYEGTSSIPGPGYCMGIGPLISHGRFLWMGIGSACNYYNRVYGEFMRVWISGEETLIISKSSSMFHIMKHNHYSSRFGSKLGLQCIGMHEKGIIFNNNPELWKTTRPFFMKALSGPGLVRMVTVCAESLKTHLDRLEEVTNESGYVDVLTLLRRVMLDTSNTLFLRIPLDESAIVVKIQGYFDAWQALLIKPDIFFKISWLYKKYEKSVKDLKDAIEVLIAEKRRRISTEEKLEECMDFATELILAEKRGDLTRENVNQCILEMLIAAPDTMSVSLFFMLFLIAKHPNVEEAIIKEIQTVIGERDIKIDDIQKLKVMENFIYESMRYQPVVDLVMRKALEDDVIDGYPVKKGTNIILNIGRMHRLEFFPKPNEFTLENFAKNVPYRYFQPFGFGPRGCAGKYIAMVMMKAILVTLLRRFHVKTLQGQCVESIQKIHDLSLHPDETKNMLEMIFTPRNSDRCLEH
# T2: AKR1C2 Phe46Tyr (Homo sapiens, UniProt P52895, F46Y)
# T2 sequence (P52895 1-323 F46Y): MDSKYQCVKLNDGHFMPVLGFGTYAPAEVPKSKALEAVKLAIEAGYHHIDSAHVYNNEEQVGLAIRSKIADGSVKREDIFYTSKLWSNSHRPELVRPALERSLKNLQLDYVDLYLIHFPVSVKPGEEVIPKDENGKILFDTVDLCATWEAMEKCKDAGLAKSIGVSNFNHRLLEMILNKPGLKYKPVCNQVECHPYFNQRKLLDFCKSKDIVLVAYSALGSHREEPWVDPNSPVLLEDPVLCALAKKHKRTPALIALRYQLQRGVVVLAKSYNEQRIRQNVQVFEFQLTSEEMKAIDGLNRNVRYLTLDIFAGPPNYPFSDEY
# How the values were obtained:
# [1] = target: T1, aromatase; settings: aromatase-mediated estrogen formation; cited from earlier work
# [2] = cited from earlier work
# [3] = target: T1, aromatase; assay: Inhibition of aromatase-mediated estrogen formation; type: biochemical; settings: unpublished observations
# [4] = target: T2, AKR1C2 Phe46Tyr; settings: relative to wildtype AKR1C2; cited from earlier work
# [5] = target: T2, AKR1C2 Phe46Tyr; settings: cited from earlier work
# [6] = substrate: C=C1C[C@@H]2[C@H](CC[C@]3(C)C(=O)CC[C@@H]23)[C@@]2(C)C=CC(=O)C=C12; assay: not read; settings: other: AKR1C2 Phe46Tyr (rs2854482); 17β-DHE formation; 37.0 °C
molecule,measurement,setting,value
"C=C1C[C@H]2[C@@H]3CC[C@H](O)[C@@]3(C)CC[C@@H]2[C@@]2(C)C=CC(=O)C=C12 [17β-DHE, 17β-dihydroexemestane]",aromatase inhibition potency,[1],potency similar to its parent compound EXE
same,17β-DHE concentration relative to parent drug in plasma,[2]; healthy individuals taking EXE,35–40%
same,variation of amount of 17β-DHE relative to EXE in human plasma,[2]; pool of three participants,five-fold
"C=C1C[C@H]2[C@@H]3CC[C@@H](O)[C@@]3(C)CC[C@@H]2[C@@]2(C)C=CC(=O)C=C12 [17α-DHE, 17α-dihydroexemestane]",aromatase-inhibiting properties,[3],no appreciable aromatase-inhibiting properties
OC1Cc2cccc3cccc1c23 (stereo not shown) [1-acenaphthenol],decrease in overall AKR1C2 activity by Phe46Tyr substitution,[4],approximately 30%
C[C@]12CCC(=O)C[C@@H]1CC[C@@H]1[C@@H]2CC[C@]2(C)[C@@H](O)CC[C@@H]12 [5α-DHT],decrease in VMAX for reduction relative to wildtype enzyme,[5],40%
AKR1C2 Phe46Tyr (Homo sapiens; F46Y) (protein) MDSKYQCVKLNDGHFMPVLGFGTYAPAEVPKSKALEAVKLAIEAGYHHIDSAHVYNNEEQVGLAIRSKIADGSVKREDIFYTSKLWSNSHRPELVRPALERSLKNLQLDYVDLYLIHFPVSVKPGEEVIPKDENGKILFDTVDLCATWEAMEKCKDAGLAKSIGVSNFNHRLLEMILNKPGLKYKPVCNQVECHPYFNQRKLLDFCKSKDIVLVAYSALGSHREEPWVDPNSPVLLEDPVLCALAKKHKRTPALIALRYQLQRGVVVLAKSYNEQRIRQNVQVFEFQLTSEEMKAIDGLNRNVRYLTLDIFAGPPNYPFSDEY,Km,[6],13.5 ± 2.8 µM
